Converted amounts (≈) assume the structure as drawn.

For series [1], the system named is E. coli ATCC 25922. In words: MIC, broth microdilution. The class given is cell-based, Escherichia coli. The settings on record: 24-hour incubation, MHB; for MIC90: Escherichia coli, ATCC25922, 24 h, read-out: MIC90 E. coli ATCC 25922. How it is done:
(§1) MIC was determined using the broth microdilution method in accordance with Clinical and Laboratory Standards Institute guidelines. All compounds were dissolved in dimethyl sulfoxide (DMSO; final DMSO concentration of less than 0.5%) and sterile double-distilled water and then diluted with Mueller-Hinton broth (MHB). Each compound’s stock solution was serially twofold diluted, resulting in concentrations ranging from 0.39 to 100 μg/ml, and thereafter added to sterile 96-well plates. All bacterial cell suspensions were adjusted in MHB to attain a starting inoculum of 1 × 10^6 cells/ml. A total of 100 μl volume of the bacterial suspension was then added to each well. Following a 24-hour incubation at 37°C, the optical density at 600 nm (OD600) was confirmed by measuring absorbance at 600 nm with a BioTek microplate reader. […] All measurements were repeated three times with duplicates each time.
For orientation: Dilution methods test growth across graded concentrations, often in twofold steps.

Series [2] can be described thus: CCK-8 cytotoxicity assay. The class given is cell-based. The settings on record: mouse, NCTC clone 929 fibroblast cells, 25 μg/ml, read-out: %Viable cells NCTC clone 929 cells. How it is done: Cytotoxicity of the compound tested was assessed by CCK-8 assays as previously described ([71]). […] Following a 24-hour incubation, 10 μl of CCK-8 reagent was added to each well and incubated for 1 hour. The absorbance at 450 nm was measured by a microplate reader. All measurements were repeated three times with duplicates each time.
On the technique in general: Tetrazolium assays rely on reduction of a dye to a coloured formazan, in cell work by metabolically active cells.

Series [3] has as its system rabbit erythrocytes. In words: Hemolysis assay. The settings on record: concentration causing 50% hemolysis of red blood cells; 1 hour, 37°C. It is filed as cell-based. How it is done: The hemolytic activity of antimicrobial agents was investigated as previously described ([70]). Briefly, the rabbit erythrocytes were centrifuged at 2500 rpm for 3 min before being washed twice with sterile phosphate-buffered saline (PBS) (pH 7.4). Subsequently, the erythrocytes were diluted with PBS to a final concentration of 8% (v/v). The DMSO-dissolved compounds were twofold serially diluted in PBS to achieve a final concentration with DMSO less than 0.5%. […] Sterile PBS and 0.2% Triton X-100 were used as negative and positive controls, respectively. After 1 hour of incubation at 37°C, the tested samples were centrifuged at 2500 rpm for 5 min, and aliquots of the supernatant were added to 96-well microplates. The hemoglobin release was determined by measuring the absorbance at 576 nm using a BioTek multimode reader. The percentage of hemolytic activity was calculated using the following formula: Hemolysis rate (%) = [OD576 (compound) − OD576 (PBS)]/[OD576 (Triton X-100) − OD576 (PBS)] × 100. All measurements were repeated three times with duplicates each time.

Series [4] concerns A. baumannii ATCC 17978. In words: MIC, broth microdilution. The class given is cell-based. The settings on record: Acinetobacter baumannii, ATCC17978; 24-hour incubation, MHB. How it is done:
as §1

Series [5] deals with MRSA NCTC 10442. In words: MIC, broth microdilution. It is filed as cell-based. The settings on record: Staphylococcus aureus; 24-hour incubation, MHB; read-out: MIC90 MRSA NCTC 10442. How it is done: as §1
The subject of series [6] is P. aeruginosa ATCC 9027. Nature of the series: MIC, broth microdilution. It is filed as cell-based. The settings on record: Pseudomonas aeruginosa, ATCC9027; 24-hour incubation, MHB. How it is done:
as §1

The test system of series [7] is A. baumannii R2889. Nature of the series: MIC, broth microdilution. It is filed as cell-based. The settings on record: Acinetobacter baumannii, 24-hour incubation, MHB. How it is done: as §1
The test system of series [8] is S. aureus ATCC 29213. Nature of the series: MIC, broth microdilution. The class given is cell-based. The settings on record: Staphylococcus aureus, ATCC29213, 24 h, 24-hour incubation, MHB; read-out: MIC90 S. aureus ATCC 29213. How it is done:
as §1

Series [9] relates to K. pneumonia ATCC 14581. In words: MIC, broth microdilution. It is filed as cell-based. The settings on record: Klebsiella pneumoniae, ATCC14581; 24-hour incubation, MHB. How it is done: as §1
The test system of series [10] is K. pneumonia ATCC 10031. In words: MIC, broth microdilution. It is filed as cell-based. The settings on record: Klebsiella pneumoniae, ATCC10031; 24-hour incubation, MHB. How it is done: as §1
Series [11] concerns MRSA N315. In words: MIC, broth microdilution. The class given is cell-based. The settings on record: Staphylococcus aureus, 24-hour incubation, MHB, read-out: MIC90 MRSA N315. How it is done:
as §1

The subject of series [12] is Gram-positive bacteria. In words: MIC, summary over Gram-positive strains. It is filed as cell-based. The settings on record: read-out: MICs against Gram-positive bacteria, three Gram-positive strains. How it is done: as §1
The subject of series [13] is K. pneumoniae. In words: MIC, summary over K. pneumoniae strains. The settings on record: Klebsiella pneumoniae, two strains; read-out: MICs against K. pneumoniae. It is filed as cell-based. How it is done:
as §1

For series [14], the system named is Gram-negative bacteria. In words: MIC, Gram-negative strains. The settings on record: read-out: MICs against Gram-negative bacteria. It is filed as cell-based. How it is done:
as §1

The conditions of series [15]: for the free primary amine group, not the whole compound; cited from earlier work.
The test system of series [16] is tested strains (Gram-positive and Gram-negative bacteria). In words: MIC, summary over the tested strains. It is filed as cell-based. The settings on record: 24 h, read-out: MICs against the tested strains. How it is done: as §1

Usually MIC90 stands for the lowest concentration that inhibits either 90% of growth or 90% of the strains tested, depending on the study. A word on the HC50: it is the concentration that lyses half of the red blood cells. A lower HC50 goes with stronger haemolysis. For the molecule `CC(C)=CCOc1cc(OCCCCCCNC(=N)N)cc2oc3cc(OCCCCCCNC(=N)N)ccc3c(=O)c12` [XT44], the “MIC90 E. coli ATCC 25922” value in [1] was determined as 1.56 µg/mL (≈ 2.62 µM). For the same molecule, the MIC90 in series [1] was 1.56 to 12.5 µg/mL (≈ 2.62 to 21 µM); in [4] it was 6.25 µg/mL (≈ 10.5 µM); in [5], 0.098 µg/mL (≈ 0.165 µM); in series [6] it was 25 µg/mL (≈ 42 µM); in series [7], 12.5 µg/mL (≈ 21 µM); in [8] it was 0.098 µg/mL (≈ 0.165 µM). The results for the MIC90 in series [9], in [10] and in series [11] were 0.78 µg/mL (≈ 1.31 µM), 0.78 µg/mL (≈ 1.31 µM) and 0.098 µg/mL (≈ 0.165 µM), respectively. Besides, in series [2], the viability at 24 h, 25 μg/ml was 4.87 ± 0.4%. This molecule also came in with an HC50 in series [3] greater than 200 µg/mL. Besides, the MIC is 0.098 to 1.56 µg/mL (≈ 0.165 to 2.62 µM) in series [12] and 0.78 µg/mL (≈ 1.31 µM) in series [13].
In the case of `[H]/N=C(/N)NCCCOc1ccc2c(=O)c3c(OCC=C(C)CCC=C(C)C)cc(OCCCNC(=N)N)cc3oc2c1` [XT18], the MIC90 came out at 1.56 µg/mL (≈ 2.7 µM) in series [1]; 25 µg/mL (≈ 43.2 µM) in series [4]; 0.78 µg/mL (≈ 1.35 µM) in [5]; 12.5 µg/mL (≈ 21.6 µM) in series [6]; 12.5 µg/mL (≈ 21.6 µM) in series [7]; 0.78 µg/mL (≈ 1.35 µM) in series [8]. Moreover, the MIC90 worked out at 12.5 µg/mL (≈ 21.6 µM) in [9], 6.25 µg/mL (≈ 10.8 µM) in series [10] and 0.78 µg/mL (≈ 1.35 µM) in series [11]. In addition, the MIC came to 1.56 µg/mL (≈ 2.7 µM) in [14] and 0.39 µg/mL (≈ 0.674 µM) in [12]. The HC50 in series [3] is 65.3 ± 2.75 µg/mL.
In general, pKa refers to the pH at which an ionisable group is half protonated. As for `CC(C)=CCOc1cc(OCCCN)cc2oc3cc(OCCCN)ccc3c(=O)c12` [XT07], the MIC90 came out at 25 µg/mL (≈ 58.6 µM) in [1], 12.5 µg/mL (≈ 29.3 µM) in series [5], 12.5 µg/mL (≈ 29.3 µM) in [8] and 12.5 µg/mL (≈ 29.3 µM) in [11]. The molecule further came in with an HC50 in series [3] greater than 200 µg/mL. In addition, the pKa in series [15] was 10.54. For the same molecule, the MIC in [16] lay in the range of 12.5 to 50 µg/mL (≈ 29.3 to 117 µM).

These data come from PMC11881906, “Development of xanthone derivatives as effective broad-spectrum antimicrobials: Disrupting cell wall and inhibiting DNA synthesis” (Science Advances, 2025).
